Results: US8937183B2, “Detection of hydrogen peroxide” (Promega Corporation, priority 2011, dated 2015)

Experiments:
[1] = Light generation from compounds following incubation with hydrogen peroxide in different pH solutions (D-cysteine conversion, LDR); type: biochemical; settings: for Signal to Background Ratios: signal with peroxide to background no peroxide
Protocol: In this experiment, various compounds were tested for their ability to detect hydrogen peroxide in different pH solutions. Several compounds are shown to give much better signal strength and signal to background ratios than PBI 3048 (Example 23). 4 mg/ml solutions of compounds PBI 4480, 4481, 4452, 4470, 4472, 3048 (FIGS. 1 and 2) were made by dissolving them in DMSO (Fluka 41641). 30 μl of the compound solutions was diluted to 1.5 ml with Nanopure water, and 50 μl aliquots added as follows into a white, 96-well luminometer plate: PBI 4481, row A1-12; PBI 4480, row B1-12; PBI 4452, row C1-12; PBI 3048, row D1-12; PBI 4472, row E1-12 and PBI 4470, row F1-12.
25 μl of 200 mM TRIS buffer, pH 7.6 was added to wells A1-F4, 25 μl of 200 mM TRIS buffer, pH 8.8 was added to wells A5-F8, and 25 μl of 200 mM Tris buffer, pH 10.4 was added […].
30% hydrogen peroxide (Sigma H 1009-5 ml) was diluted to 40 μM in Nanopure water, and 25 μl added to columns 3, 4, 7, 8, 11 and 12 of the plate. 25 μl water was added to columns 1, 2, 5, 6, 9, and 10 of the plate, and the plate incubated at room temperature for 60 minutes.
A conversion solution was made by mixing 100 μl of 100 mM D-cysteine, 1 ml Tris Buffer pH 8.8 and 8.9 ml nanopure water. After mixing, 80 μl of the solution was added to wells A1-F12 of a new luminometer plate.
After incubation, 20 μl of sample from wells A1-F12 of the first plate was transferred to the same well in the new luminometer plate. The new plate was incubated at room temperature for 5 minutes, 100 μl of LDR (Example 23) was added to wells A1-F12, and bioluminescence detected on a Glo Max® luminometer (Promega).
The RLUs for the duplicate wells were averaged. The averages for the wells containing hydrogen peroxide were compared to the wells without hydrogen peroxide at the same pH (Table 2). BZT is used to designate benzothiazole derivatives of the compounds.
The Signal to Background (S/B) ratio is used to compare assay reagents with very difference signal strengths. An assay with a higher S/B ratio is often considered a better assay than one with a smaller S/B ratio (with all other factors being relatively equal).

[2] = Generation of bioluminescence from luciferin borates upon treatment with hydrogen peroxide (luciferase light reaction); type: biochemical; settings: for light signal increase upon addition of hydrogen peroxide (in words): all pH values 6.87 to 9.18
Protocol: In this example, luciferin borates were incubated with hydrogen peroxide, and luciferin generation was measured using a light reaction catalyzed by luciferase. An increase in light output (bioluminescence) as a result of treatment of the luciferin borates with hydrogen peroxide indicates generation of luciferin as a result of the reaction with hydrogen peroxide.
1 M phosphate solutions (either 6.8 g of KH2PO4 (Fisher) or 11.4 g of K2HPO4 (Sigma) were dissolved in Nanopure water to 1 M) were diluted 1:5 with Nanopure water to produce 200 mM phosphate solutions. 200 mM phosphate buffers at pH 6.87, 7.41, 7.73, 8.04, and 9.18 were prepared. 4 mg/ml solutions of PBI 3048, 4013, 4424 and 4425 (FIG. 1) in DMSO (Fluka 41641) were made from solid powder.
Into two 96-well white, solid bottom luminometer plates (Promega Z3291) (labeled “A” and “B”), 50 μl of 200 mM phosphate buffer pH 6.87 was added to wells A1-H2; 50 μl of 200 mM phosphate pH 7.41 was added to wells A3-H4; 50 μl of 200 mM phosphate buffer pH 7.73 was added to wells A5-H6; 50 μl of 200 mM phosphate buffer pH 8.04 was added to wells A7-H8; and 50 μl of 200 mM phosphate buffer pH 9.18 was added to wells A9-H10.
50 μl of 4 mg/ml PBI 4013 in DMSO was diluted to 1.25 ml with Nanopure water, and 25 μl added to wells A1-D10 of plate A. 50 μl of 4 mg/ml PBI 4424 was diluted to 1.25 ml with Nanopure water, and 25 μl added to E1-H10 of plate A. 50 μl of 4 mg/ml PBI 3048 was diluted to 1.25 ml with Nanopure water, and 25 μl added to A1-D10 of plate B. 50 μl of 4 mg/ml PBI 4425 was diluted to 1.25 ml with Nanopure water, and 25 μl added to E1-H10 of plate B. 25 μl of Nanopure water was added to rows A and E of both plates. 17 μl of Nanopure water was added to rows B and F of both plates; and 8 μl of Nanopure water was added to rows C and G of both plates
A hydrogen peroxide solution (30% hydrogen peroxide, Sigma H1009-5 ml) was diluted to 60 μM hydrogen peroxide with Nanopure water, and 25 μl of the 60 μM hydrogen peroxide was added to rows D and H of both plates; 17 μl of […] hydrogen peroxide was added to rows C and G of both plates; and 8 μl of […] hydrogen peroxide was added to rows B and F of both plates. Both plates A and B were then gently mixed for 70 minutes.
A bottle of Reconstitution Buffer with Esterase (Promega V144B) was thawed and used to reconstitute a Luciferin Detection Reagent (Promega V859B) to create a reconstituted Luciferin Detection Reagent (“LDR”). 15 ml of 1 M HEPES buffer, pH 7.5 was mixed with 25 ml of the LDR, and 80 μl added to wells A1-H10 of two new luminometer plates (“R1” and “R2”).
Following incubation, 20 μl of the contents of wells A1-H10 of plate A was transferred to the same wells in plate R1, and 20 μl of A1-H10 of plate B was transferred to the same wells in plate R2. Plate R1 and R2 were then incubated at room temperature for 15 minutes, and bioluminescence was measured with a GloMax® luminometer (Promega Corp).
Bioluminescence from duplicate wells was averaged, and the average relative light units (RLUs) from samples containing peroxide were compared to those from the samples not containing peroxide incubated at the same pH (Table 1).

[3] = pH 7.6 TRIS buffer, No H2O2, 60 minutes
[4] = pH 7.6 TRIS buffer, With H2O2 (25 μl of 40 μM added), 60 minutes
[5] = pH 8.8 TRIS buffer, No H2O2, 60 minutes
[6] = pH 8.8 TRIS buffer, With H2O2 (25 μl of 40 μM added), 60 minutes
[7] = pH 10.4 Tris buffer, No H2O2, 60 minutes
[8] = pH 10.4 Tris buffer, With H2O2 (25 μl of 40 μM added), 60 minutes
[9] = H2O2 0 μM, phosphate buffer pH 6.87, 70 minutes
[10] = H2O2 0 μM, phosphate buffer pH 7.41, 70 minutes
[11] = H2O2 0 μM, phosphate buffer pH 7.73, 70 minutes
[12] = H2O2 0 μM, phosphate buffer pH 8.04, 70 minutes
[13] = H2O2 0 μM, phosphate buffer pH 9.18, 70 minutes
[14] = H2O2 5 μM, phosphate buffer pH 6.87, 70 minutes
[15] = H2O2 5 μM, phosphate buffer pH 7.41, 70 minutes
[16] = H2O2 5 μM, phosphate buffer pH 7.73, 70 minutes
[17] = H2O2 5 μM, phosphate buffer pH 8.04, 70 minutes
[18] = H2O2 5 μM, phosphate buffer pH 9.18, 70 minutes
[19] = H2O2 10 μM, phosphate buffer pH 6.87, 70 minutes
[20] = H2O2 10 μM, phosphate buffer pH 7.41, 70 minutes
[21] = H2O2 10 μM, phosphate buffer pH 7.73, 70 minutes
[22] = H2O2 10 μM, phosphate buffer pH 8.04, 70 minutes
[23] = H2O2 10 μM, phosphate buffer pH 9.18, 70 minutes
[24] = H2O2 15 μM, phosphate buffer pH 6.87, 70 minutes
[25] = H2O2 15 μM, phosphate buffer pH 7.41, 70 minutes
[26] = H2O2 15 μM, phosphate buffer pH 7.73, 70 minutes
[27] = H2O2 15 μM, phosphate buffer pH 8.04, 70 minutes
[28] = H2O2 15 μM, phosphate buffer pH 9.18, 70 minutes

Row | average relative light units (bioluminescence) [2, 9] | average relative light units (bioluminescence) [2, 10] | average relative light units (bioluminescence) [2, 11] | average relative light units (bioluminescence) [2, 12] | average relative light units (bioluminescence) [2, 13] | average relative light units (bioluminescence) [2, 14] | average relative light units (bioluminescence) [2, 15] | average relative light units (bioluminescence) [2, 16] | average relative light units (bioluminescence) [2, 17] | average relative light units (bioluminescence) [2, 18] | average relative light units (bioluminescence) [2, 19] | average relative light units (bioluminescence) [2, 20] | average relative light units (bioluminescence) [2, 21] | average relative light units (bioluminescence) [2, 22] | average relative light units (bioluminescence) [2, 23] | average relative light units (bioluminescence) [2, 24] | average relative light units (bioluminescence) [2, 25] | average relative light units (bioluminescence) [2, 26] | average relative light units (bioluminescence) [2, 27] | average relative light units (bioluminescence) [2, 28] | SMILES | other results
1 |  |  |  |  |  |  |  |  |  |  |  |  |  |  |  |  |  |  |  |  | N#Cc1nc2ccc(OCc3ccc(B(O)O)c(Cl)c3)cc2s1 [PBI 4470, (2-chloro-4-(((2-cyanobenzo[d]thiazol-6-yl)oxy)methyl)phenyl)boronic acid] | Signal to Background Ratios ([1]; pH 7.6): 1.4; averaged RLUs (bioluminescence) [1, 3]: 492,941 RLU; averaged RLUs (bioluminescence) [1, 4]: 701,300 RLU; Signal to Background Ratios ([1]; pH 8.8): 3.3; averaged RLUs (bioluminescence) [1, 5]: 468,729 RLU; averaged RLUs (bioluminescence) [1, 6]: 1,525,058 RLU; Signal to Background Ratios ([1]; pH 10.4): 16.3; averaged RLUs (bioluminescence) [1, 7]: 819,416 RLU; averaged RLUs (bioluminescence) [1, 8]: 13,391,102 RLU
2 | 421,702 RLU | 469,602 RLU | 573,023 RLU | 585,008 RLU | 700,831 RLU | 580,978 RLU | 760,900 RLU | 1,089,717 RLU | 1,534,619 RLU | 3,678,815 RLU | 680,475 RLU | 1,020,315 RLU | 1,634,356 RLU | 2,485,677 RLU | 5,433,577 RLU | 793,789 RLU | 1,282,281 RLU | 2,209,227 RLU | 3,373,538 RLU | 7,062,631 RLU | O=C(O)C1CSC(c2nc3ccc(OCc4ccc(B(O)O)c5ccccc45)cc3s2)=N1 (stereo not drawn) [PBI 4013] | light signal increase upon addition of hydrogen peroxide (in words) [2]: increased strongly
3 | 10,464 RLU | 10,266 RLU | 9,302 RLU | 10,312 RLU | 9,428 RLU | 13,296 RLU | 14,549 RLU | 13,739 RLU | 15,130 RLU | 19,728 RLU | 14,491 RLU | 14,768 RLU | 17,086 RLU | 19,258 RLU | 26,859 RLU | 14,105 RLU | 14,725 RLU | 15,789 RLU | 18,905 RLU | 24,236 RLU | CC(Oc1ccc2nc(C3=NC(C(=O)O)CS3)sc2c1)c1ccc(B(O)O)cc1 (stereo not drawn) [PBI 4425] | light signal increase upon addition of hydrogen peroxide (in words) [2]: much smaller
4 | 17,522 RLU | 16,181 RLU | 17,087 RLU | 18,602 RLU | 17,794 RLU | 18,952 RLU | 17,583 RLU | 18,681 RLU | 20,935 RLU | 22,309 RLU | 19,891 RLU | 17,508 RLU | 19,298 RLU | 20,554 RLU | 20,333 RLU | 20,263 RLU | 19,332 RLU | 25,729 RLU | 21,486 RLU | 20,453 RLU | O=C(O)C1CSC(c2nc3ccc(OCc4c(B(O)O)ccc5ccccc45)cc3s2)=N1 (stereo not drawn) [PBI 4424] | light signal increase upon addition of hydrogen peroxide (in words) [2]: much smaller
5 |  |  |  |  |  |  |  |  |  |  |  |  |  |  |  |  |  |  |  |  | N#Cc1nc2ccc(OCc3ccc(B(O)O)cc3)cc2s1 [PBI 4452, (4-(((2-cyanobenzo[d]thiazol-6-yl)oxy)methyl)phenyl)boronic acid] | Signal to Background Ratios ([1]; pH 7.6): 1.9; averaged RLUs (bioluminescence) [1, 3]: 607,036 RLU; averaged RLUs (bioluminescence) [1, 4]: 1,182,338 RLU; Signal to Background Ratios ([1]; pH 8.8): 4.4; averaged RLUs (bioluminescence) [1, 5]: 632,327 RLU; averaged RLUs (bioluminescence) [1, 6]: 2,790,924 RLU; Signal to Background Ratios ([1]; pH 10.4): 15.8; averaged RLUs (bioluminescence) [1, 7]: 921,935 RLU; averaged RLUs (bioluminescence) [1, 8]: 14,577,312 RLU
